Measured values from publication PMC8151276, “An Integrated Approach toward NanoBRET Tracers for Analysis of GPCR Ligand Engagement” (Molecules, 2021).

Biological target: T1, GRPR (Homo sapiens, UniProt P30550)
T1 construct: purchased Promega (in-house HiBiT-GPCR construct library, NanoBRET)
Experiment: NanoBRET screen HiBiT-GRPR in HEK293
Format: binding
Procedure: Each tracer candidate was screened across the entire library of HiBiT-GPCR constructs using NanoBRET as the detection modality. As depicted in Figure 4A, the specificity of interactions was evaluated through decrease in BRET due to competitive displacement of a bound tracer by excess parental compound. Each tracer was analyzed for binding to each HiBiT-GPCR fusion in the absence and in the presence of competing parental compound. Briefly, HEK293 cells were transfected with HiBiT-GPCR constructs diluted into promoterless DNA to reduce expression and maximize translocation to the cell surface. Each tracer candidate was then screened at concentrations of 1 μM and 0.1 μM across cells expressing these fusions. Cells were treated for 1.5 h with tracer either alone or in the presence of 20 μM competing parental compound (i.e., control). BRET was measured upon addition of purified LgBiT and subsequent complementation with HiBiT genetically fused to a GPCR. The specificity of interactions was assessed through a decrease in BRET signal due to competitive displacement of the bound tracer. To further gauge the robustness of these interactions, the fold response over the control (i.e., BRETtracer/BRETcontrol) was calculated. We chose a 1.5-fold response, which translates to ≥7-fold signal over noise as the minimal threshold required to score an interaction as positive. […]. Below we highlight the screening results obtained for our exemplary fluorescent tracers based on Clozapine, Amitriptyline and AZD1283.
HiBiT-GPCR DNA constructs were diluted in 10 mM Tris pH 8 to a final concentration of 0.01 μg/μL, arrayed in 96-well plates and stored at −20 °C. For transfection, HEK293 cells were suspended in Opti-MEM (without phenol red) supplemented with 2% fetal bovine serum (Seradigm) and 100 units/mL penicillin–streptomycin (Gibco) at a final concentration of 220,000 cells/mL and dispensed into white 96-well plates at 90 μL/well. Subsequent transfections and screens were carried using an Agilent Bravo Automated Liquid Handling Platform. First, the 96-well HiBiT DNA arrays were diluted 25-fold in Opti-MEM (without serum or phenol red) to a final concentration of 0.0004 μg/μL and 20 μL of the diluted DNAs were transferred into new 96-well plates. Next, promoterless carrier DNA (1 μg/μL) was diluted 25-fold (0.04 μg/μL) and then dispensed into the diluted arrays at 20 μL/well. Following brief mixing, Viafect transfection reagent (Promega) diluted 16-fold into Opti-MEM was dispensed into the plates at 40 μL/well. After mixing by pipetting, plates were incubated for 10 min on the pipetting station deck. The DNA-transfection reagent complexes were then added to plates containing cells. To facilitate the screen, 10 μL of DNA-transfection reagent complexes were added in duplicates to the top 4 and bottom 4 rows, resulting in two identical 48-well arrays per plate. Plates with transfected cells were incubated for 18–20 h at 37 °C/5% CO2. A screen of each tracer across the entire library using two different concentrations requires duplicate plates of transfected cells. Depending on the number of tracers being screened, transfections can be scaled up using the same ratios. The next day, for each tracer, four 20× screening solutions in tracer dilution buffer (Promega) were prepared: two duplicates at final concentration of 20 μM and two duplicates at a final concentration of 2 μM. A competing unmodified compound was added to one of each duplicate at a final concentration of 400 μM. The four resulting solutions were diluted 4-fold in Opti-MEM without serum or phenol red to generate 5× solutions (5 µM and 0.5 µM tracer +/− 100 μM competing compound). To screen the library, a BioTek MultiFlo FX liquid dispenser was used to dispense 22.5 µL of tracer solution to the top 4 rows and 22.5 µL tracer + competing compound solution to the 4 bottom rows. Plates were briefly mixed on an orbital shaker and incubated for 1.5 h at room temperature. […]

T1 sequence (P30550 whole entry): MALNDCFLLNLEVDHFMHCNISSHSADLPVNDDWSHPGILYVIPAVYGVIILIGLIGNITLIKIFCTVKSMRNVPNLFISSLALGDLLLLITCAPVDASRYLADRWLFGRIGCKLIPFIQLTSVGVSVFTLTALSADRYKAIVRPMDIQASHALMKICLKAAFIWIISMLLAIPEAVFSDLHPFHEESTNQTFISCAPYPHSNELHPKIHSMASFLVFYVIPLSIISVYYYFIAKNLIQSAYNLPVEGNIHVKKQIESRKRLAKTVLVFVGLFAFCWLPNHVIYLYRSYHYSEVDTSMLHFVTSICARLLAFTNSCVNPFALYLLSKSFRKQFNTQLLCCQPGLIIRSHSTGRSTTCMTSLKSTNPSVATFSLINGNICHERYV

Question: Which “NanoBRET Fold Response” value (GRPR, 0.1μM) does the source give for `CCOC(=O)c1cc(C#N)c(N2CCC(C(=O)NS(=O)(=O)Cc3ccccc3/C=C/C(=O)NCCNC(=O)CCc3ccc4n3[B-](F)(F)[N+]3=C(c5ccc[nH]5)C=CC3=C4)CC2)nc1C` [AZD1283-1-NB590] here?
Answer: Its value is 1.01.

Question: And the “NanoBRET Fold Response” value (GRPR, 1μM)?
Answer: Its value is 1.01.

Question: How did the “NanoBRET Fold Response” value (GRPR, tracer 0.1μM) turn out when `N#CN=C(NCCCOc1cccc(CN2CCCCC2)c1)NCCNC(=O)CCOCCOCCOCCOCCNC(=O)CCc1ccc2n1[B-](F)(F)[N+]1=C(c3ccc[nH]3)C=CC1=C2` [Aminopotentidine-2-NB590] was run?
Answer: Its value is 1.08.

Question: What about the “NanoBRET Fold Response” value (GRPR, tracer 1μM) of the same molecule?
Answer: The value was 0.98.

Question: Which results are given for `CN(C)CCC=C1c2ccccc2CCc2ccc(C(=O)NCCNC(=O)CCOCCOCCOCCOCCNC(=O)CCc3ccc4n3[B-](F)(F)[N+]3=C(c5ccc[nH]5)C=CC3=C4)cc21` [Amitriptyline-a-2-NB590]?
Answer: NanoBRET Fold Response (tracer at 0.1μM): 1.12; NanoBRET Fold Response (tracer at 1μM): 0.98

Question: `CN(C)CCC=C1c2ccccc2CCc2ccc(C(=O)NCCNC(=O)CCOCCOCCOCCOCCNC(=O)CCc3ccc4n3[B-](F)(F)[N+]3=C(c5ccc[nH]5)C=CC3=C4)cc21` [Amitriptyline-b-2-NB590] was tested. Which “NanoBRET Fold Response” value (tracer at 0.1μM, listed as amitriptyline-b-2-NB590) did it give?
Answer: The value was 1.05.

Question: And the “NanoBRET Fold Response” value (tracer at 1μM, listed as amitriptyline-b-2-NB590)?
Answer: Its value is 1.03.

Question: What does the source list for `COc1ccc2c(n1)c(CCNC(C)=O)cn2CCNC(=O)CCc1ccc2n1[B-](F)(F)[N+]1=C(c3ccc[nH]3)C=CC1=C2` [Azamelatonin-1-NB590]?
Answer: NanoBRET Fold Response (0.1μM tracer): 1.00; NanoBRET Fold Response (1μM tracer): 1.08

Question: Which results are given for `COc1ccc2[nH]c(-c3ccc(CNC(=O)CCOCCOCCOCCOCCNC(=O)CCc4ccc5n4[B-](F)(F)[N+]4=C(c6ccc[nH]6)C=CC4=C5)cc3)c(CCNC(C)=O)c2n1` [AzomelatoninICO9-2-NB590]?
Answer: NanoBRET Fold Response (0.1μM tracer): 0.84; NanoBRET Fold Response (1μM tracer): 1.22

Question: With `O=C(CCOCCOCCOCCOCCNC(=O)CCc1ccc2n1[B-](F)(F)[N+]1=C(c3ccc[nH]3)C=CC1=C2)NCCCN1CCN(C2=Nc3cc(Cl)ccc3Nc3ccccc32)CC1` [Clozapine-a-2-NB590] as the molecule, how does the “NanoBRET Fold Response” value (GRPR, 0.1μM tracer) read?
Answer: The value was 1.11.

Question: And the “NanoBRET Fold Response” value (GRPR, 1μM tracer)?
Answer: The value was 1.37.

Question: `CN1CCN(C2=Nc3cc(Cl)ccc3Nc3ccc(CNC(=O)CCOCCOCCOCCOCCNC(=O)CCc4ccc5n4[B-](F)(F)[N+]4=C(c6ccc[nH]6)C=CC4=C5)cc32)CC1` [Clozapine-b-2-NB590] was tested. Which “NanoBRET Fold Response” value (GRPR, 0.1μM tracer) did it give?
Answer: The value was 1.01.

Question: And the “NanoBRET Fold Response” value (GRPR, 1μM tracer)?
Answer: The value was 1.00.

Question: For `CN1CCN(C2=Nc3cc(Cl)ccc3N(CC(=O)NCCOCCOCCOCCOCCNC(=O)CCc3ccc4n3[B-](F)(F)[N+]3=C(c5ccc[nH]5)C=CC3=C4)c3ccccc32)CC1` [Clozapine-c-2-NB590], which “NanoBRET Fold Response” value (GRPR, 0.1μM tracer) is on record?
Answer: The value was 1.01.

Question: And the “NanoBRET Fold Response” value (GRPR, 1μM tracer)?
Answer: Its value is 0.99.

Question: `O=C(CCOCCOCCOCCOCCNC(=O)CCc1ccc2n1[B-](F)(F)[N+]1=C(c3ccc[nH]3)C=CC1=C2)NCCCN1CCN(C2=Nc3ccccc3Oc3ccc(Cl)cc32)CC1` [Loxapine-a-2-NB590] was tested. Which “NanoBRET Fold Response” value (GRPR, tracer 0.1μM) did it give?
Answer: The value was 1.17.

Question: What about the “NanoBRET Fold Response” value (GRPR, tracer 1μM) of the same molecule?
Answer: Its value is 1.09.

Question: For `COc1ccccc1N1CCN(CCCCN2C(=O)c3ccc(CNC(=O)CCOCCOCCOCCOCCNC(=O)CCc4ccc5n4[B-](F)(F)[N+]4=C(c6ccc[nH]6)C=CC4=C5)cc3C2=O)CC1` [NAN-190-2-NB590], which “NanoBRET Fold Response” value (GRPR, tracer 0.1μM) is on record?
Answer: The value was 0.99.

Question: And the “NanoBRET Fold Response” value (GRPR, tracer 1μM)?
Answer: The value was 0.92.

Question: What does the source list for `COc1ccccc1N1CCN(CCCCN2C(=O)c3ccc(CNC(=O)CCOCCNC(=O)c4ccc(CNC(=O)CCc5ccc6n5[B-](F)(F)[N+]5=C(c7ccc[nH]7)C=CC5=C6)cc4)cc3C2=O)CC1` [NAN-190-3-NB590]?
Answer: NanoBRET Fold Response (GRPR, tracer 0.1μM): 0.87; NanoBRET Fold Response (GRPR, tracer 1μM): 0.94

Question: `O=C(CCc1ccc2n1[B-](F)(F)[N+]1=C(c3ccc[nH]3)C=CC1=C2)NCc1ccc(C(=O)NCCOCCC(=O)N[C@@H]2CC[C@@]3(O)[C@H]4Cc5ccc(O)c6c5[C@@]3(CCN4CC3CC3)[C@H]2O6)cc1` [Naltrexone-3-NB590] was tested. Which “NanoBRET Fold Response” value (GRPR, tracer 0.1μM) did it give?
Answer: Its value is 0.91.

Question: What about the “NanoBRET Fold Response” value (GRPR, tracer 1μM) of the same molecule?
Answer: Its value is 0.92.

Question: For `Cc1cc2c(s1)Nc1ccccc1N=C2N1CCN(CCCNC(=O)CCOCCOCCOCCOCCNC(=O)CCc2ccc3n2[B-](F)(F)[N+]2=C(c4ccc[nH]4)C=CC2=C3)CC1` [Olanzapine-a-2-NB590], which “NanoBRET Fold Response” value (GRPR, tracer 0.1μM) is on record?
Answer: Its value is 0.95.

Question: And the “NanoBRET Fold Response” value (GRPR, tracer 1μM)?
Answer: The value was 0.93.

Question: How did the “NanoBRET Fold Response” value (GRPR, 0.1μM) turn out when `O=C(CCc1ccc2n1[B-](F)(F)[N+]1=C(c3ccc[nH]3)C=CC1=C2)NCc1ccc(C(=O)NCCOCCOCCNCC(O)COc2cccc3ccccc23)cc1` (stereo not shown) [Propranolol-3-NB590] was run?
Answer: Its value is 0.99.

Question: And the “NanoBRET Fold Response” value (GRPR, 1μM)?
Answer: The value was 1.03.

Question: With `O=C(CCc1ccc2n1[B-](F)(F)[N+]1=C(c3ccc[nH]3)C=CC1=C2)NCCOCCOCCNC(=O)OCCOCCN1CCN(C2=Nc3ccccc3Sc3ccccc32)CC1` [Quetiapine-a-2-NB590] as the molecule, how does the “NanoBRET Fold Response” value (GRPR, tracer 0.1μM) read?
Answer: The value was 0.66.

Question: What about the “NanoBRET Fold Response” value (GRPR, tracer 1μM) of the same molecule?
Answer: Its value is 0.84.

Question: With `Cc1nc2n(c(=O)c1CCN1CCC(c3noc4cc(F)ccc34)CC1)CCCC2OC(=O)NCCOCCOCCOCCOCCNC(=O)CCc1ccc2n1[B-](F)(F)[N+]1=C(c3ccc[nH]3)C=CC1=C2` (stereo not shown) [Risperidone-2-NB590] as the molecule, how does the “NanoBRET Fold Response” value (GRPR, tracer 0.1μM) read?
Answer: The value was 0.96.

Question: What about the “NanoBRET Fold Response” value (GRPR, tracer 1μM) of the same molecule?
Answer: Its value is 0.91.

Question: With `CC(C)N(CC[C@H](c1ccccc1)c1cc(CCNC(=O)CCOCCOCCOCCOCCNC(=O)CCc2ccc3n2[B-](F)(F)[N+]2=C(c4ccc[nH]4)C=CC2=C3)ccc1O)C(C)C` [Tolterodine-2-NB590] as the molecule, how does the “NanoBRET Fold Response” value (GRPR, tracer 0.1μM) read?
Answer: Its value is 0.89.

Question: And the “NanoBRET Fold Response” value (GRPR, tracer 1μM)?
Answer: The value was 0.91.

Question: `CC(C)N(CC[C@H](c1ccccc1)c1cc(CCNC(=O)c2ccc(CNC(=O)CCc3ccc4n3[B-](F)(F)[N+]3=C(c5ccc[nH]5)C=CC3=C4)cc2)ccc1O)C(C)C` [Tolterodine-BZ-NB590] was tested. Which “NanoBRET Fold Response” value (GRPR, tracer 0.1μM) did it give?
Answer: The value was 0.81.

Question: What about the “NanoBRET Fold Response” value (GRPR, tracer 1μM) of the same molecule?
Answer: Its value is 0.99.

Question: `CCCn1c(=O)c2[nH]c(-c3ccc(OCC(=O)NCCNC(=O)CCOCCNC(=O)c4ccc(CNC(=O)CCc5ccc6n5[B-](F)(F)[N+]5=C(c7ccc[nH]7)C=CC5=C6)cc4)cc3)nc2n(CCC)c1=O` [XAC-3-NB590] was tested. Which “NanoBRET Fold Response” value (GRPR, tracer 0.1μM) did it give?
Answer: Its value is 1.24.

Question: And the “NanoBRET Fold Response” value (GRPR, tracer 1μM)?
Answer: The value was 1.01.
